Reference: patent US8592435B2, “Nitrogen-containing six-membered aromatic ring derivatives and pharmaceutical products containing the same” (Daiichi Sankyo Company, Limited, priority 2007, dated 2013)

What was measured:
[1] = test system: microsphere (micro-embolism) model; experiment: Test Example 6: rat microsphere (micro-embolism) model; type: in vivo, Crl:CD(SD) rats; settings: rats, oral 1.0 mg/kg once daily for 10 days (Compound 65 also 0.1 mg/kg); 2 weeks after surgery
Excerpt: According to the method of Ichiro Date et al. [Journal of Neuroscience Research 78; 442-453 (2004)], 8-week-old male Crl:CD(SD) rats were used. Animals were anesthetized with halothane and midline incision was made. Right carotid artery was separated and a thread was looped around the common carotid artery and external carotid artery. The pterygopalatine artery was temporarily clipped with an aneurysm clip. The blood flow through the common carotid artery and external carotid artery was temporarily interrupted and 0.1 mL of a microsphere suspension composed of microspheres dispersed in a 30% sucrose solution (1800 microspheres/0.1 mL) was injected into the common carotid artery. After injection of the suspension, the puncture of the injection needle was filled with instant glue while the blood flow was interrupted. The blood flow was then restored and the surgical wound was sutured. Neurological symptoms were observed the day following the surgery. The animals were assigned to each treated group at random with respect to the measurements of neurological symptoms, the decrease in body weight from the previous day, and the body weight on that day.
The test compounds used were Example Compound 65, 108, 130, 135 and 137, each of which was administered at a dose of 1.0 mg/kg. Example Compound 65 was administered also at a dose of 0.1 mg/kg. Each compound was orally administered once daily for 10 days starting from the following day of the surgery. Coordinated motor functions were measured 5 times on an accelerated rota-rod (4 to 40 rpm/5 min) 2 weeks after the surgery.
Specifically, FIGS. 11 to 15 show the effect of different compounds 2 weeks after the microsphere injection (rota-rod test standard parameter). The figures show the results of rota-rod tests 2 weeks after the ischemic event in which each compound was orally administered at 1.0 mg/kg once daily for 10 days (Example Compound 65 was administered at 0.1 mg/kg or 1.0 mg/kg). What is shown in the figures is the total time of the 5 measurements on rota-rod as a standard parameter.
***: p<0.0001, Dunnett's multiple range test vs. Vehicle.

chemokine receptor CCR3 = target: T1, chemokine receptor CCR3 (Homo sapiens, UniProt P51677); experiment: Affinity to chemokine receptor CCR3; type: binding; settings: at a concentration of 10 μM
T1 sequence (P51677 1-355): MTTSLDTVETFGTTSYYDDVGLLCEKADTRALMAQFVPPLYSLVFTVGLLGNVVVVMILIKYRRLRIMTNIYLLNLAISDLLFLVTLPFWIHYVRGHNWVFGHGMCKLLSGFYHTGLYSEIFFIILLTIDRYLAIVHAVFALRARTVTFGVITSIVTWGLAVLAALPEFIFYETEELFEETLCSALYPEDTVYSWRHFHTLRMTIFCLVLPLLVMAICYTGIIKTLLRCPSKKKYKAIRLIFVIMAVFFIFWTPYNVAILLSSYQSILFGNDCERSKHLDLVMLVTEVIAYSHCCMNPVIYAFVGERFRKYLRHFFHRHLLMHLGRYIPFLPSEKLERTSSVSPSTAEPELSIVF
Excerpt: Although the compounds of the present invention are novel compounds, compounds having a partly similar skeleton are described, for example, in Published Japanese Translation of PCT International Application No. 2003-507456, WO 01/79170 and WO 00/23076.

[2] = test system: mixture of human vascular endothelial cells and fibroblasts; experiment: Test Example 2: ability to promote angiogenesis (angiogenesis test kit KZ-1000); type: cell-based; settings: Homo sapiens, 216 h; Compound Conc. = 3 μM; lumen length, % of control, day 9; read-out: Promotion of angiogenesis (%)
Procedure, shortened: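 Co-culture of human endothelial cells and fibroblasts; compound added on days 1, 4 and 7, CD31 immunostaining on day 9. Lumen length quantified from images and expressed as % of untreated control; 120 used as activity threshold.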

[3] = test system: spinal cord injury (SCI) model; experiment: Test Example 7: spinal cord injury (SCI) model in rats; type: in vivo, Slc: SD rats; settings: 1 mg/kg through the tail vein once daily for 10 days, once a week until 5 weeks after surgery
Excerpt: According to the method of Venkata Ramesh Dasari et al. [J Neurotrauma. 2007 February; 24(2):391-410], 9-week-old female Slc: SD rats were used. Animals were anesthetized with pentobarbital and incised along the dorsal midline. After the spinal column was exposed by dorsal midline incision, the 9th thoracic vertebral arch was removed with bone scissors, paying attention not to damage the dura mater. The upper and lower bones were held in place to position the exposed spinal site just under the impactor device (where impact is applied) and then a 200-kdyn force was applied to the site. Tonic extension of the lower limbs by the spinal cord injury was checked.
The test compound used was Example Compound 65, which was administered at a dose of 1 mg/kg. Specifically, the compound was administered through the tail vein once daily for 10 days, starting from 90 min after the surgery. The motor function of lower limb was evaluated by BBB score (Basso D M, Beattie M S, Bresnahan J C: J Neurotrauma. 1995; 12:1-21) once a week until 5 weeks after surgery.

spinal cord neurons = experiment: Test Example 3: ability to promote the neurite outgrowth of spinal cord neurons; type: cell-based, Wistar rats; settings: Compound Conc. = 0.1 μM; % of control, day 3
Method: According to the method of Martin G. Hanson Jr. [J. Neurosci., 1998 Sep. 15; 18(18): 7361-71], the spinal cord region was isolated from 15-day embryos of female Wistar rats and the cells were dispersed using the papain dissociation system. Neurons were collected using 6.8% Metrizamide density gradient and were suspended in 2% FBS+Leibovitz's −15 medium so that the density of the cells will be 2×10^3 cells/well/200 μL. 200 μL of the cell suspension was inoculated on a poly-D-lysine/laminin-coated 96 well plate and the plate was incubated in an incubator at 37° C. Test compounds were added 1 hour after seeding of cells.
On day 3 of the incubation period, neurons were stained with Calcein-AM and the lengths of neurites were determined using IN Cell Analyzer (GE Healthcare Bioscience).
The ability (%) of each test compound to promote neurite outgrowth was calculated from the following equation: The ability to promote neurite outgrowth (%)=[(measurement with a compound of interest)/(measurement of control)]×100
Example Compounds 65, 71, 74, 92, 130 and 135 were used as test compounds and were each added at a concentration of 0.1 μM.
The results are shown in Table 27. bFGF gives a measurement of about 130 in this test.

Cc1nc(OCC(=O)N(C)C2CCN(Cc3ccccc3)CC2)nc(C)c1N [Compound 65, 2-(5-amino-4,6-dimethylpyrimidine-2-yloxy)-N-(1-benzylpiperidine-4-yl)-N-methylacetamide]
coordinated motor functions, total time of 5 measurements on rota-rod [1]: highly effective in ameliorating ischemic cerebral infarction
affinity to chemokine receptor CCR3 (chemokine receptor CCR3): 0.0%
activity at 3 µM [2]: 170%
motor function of lower limb (BBB score) [3]: highly effective in ameliorating spinal cord injury
Promotion of spinal cord neurite outgrowth (%) (spinal cord neurons): 135%
